# Reference: patent US8927015B2, “Formulations for delivering insulin” (Emisphere Technologies, Inc., priority 2006, dated 2015)
# Key:
# [1] = Solubility of insulin in aqueous solutions containing a delivery agent
# Description: The solubility of insulin was investigated in aqueous solutions containing varying amounts of the delivery agent compound sodium 4-CNAB. The aqueous solution containing delivery agent was adjusted to pH 1 by the addition of 1N HCl and excess insulin was added to the acidified solution. Thereafter, the pH of the solution was increased by the addition of increments of 1N NaOH. Vials containing the suspensions were left without shaking or sonicating for 1-2 hours. The supernatant was analyzed for insulin and sodium 4-CNAB using an HPLC method and the pH was recorded. […] All of these experiments were performed at room temperature.
# [2] = Dissolution of insulin pellet (USP Dissolution Type II paddle); format: physicochemical
# Description: A 300 mg pellet of insulin was prepared in a die. The surface area of the pellet available to the dissolution medium was 0.484 cm^2. The pellet was compressed at 1200-1400 lbs on a Carver press to form discs. The die was then attached to the shaft of a dissolution apparatus (USP Dissolution Type II (Paddle) made by Vankel). The die was rotated at 100 rpm and then immersed in 500 mL of degassed dissolution medium maintained at 37° C. Dissolution experiments were conducted in water and in aqueous solutions containing sodium 4-CNAB. Samples of the solutions were taken over two hours and analyzed by HPLC. FIGS. 3 and 4 show dissolution profiles of insulin in deionized (DI) water and in 10 mg/mL sodium 4-CNAB solution, respectively.
# [3] = for Solubility: pH 6.8
# Description: Excess insulin was added to buffer solutions at pH values of 1, 2, 3, 4, 5, 6, 6.8, and 7.4. Vials containing the solutions were shaken in a constant temperature water bath, and visually observed at regular time intervals. Samples were taken at 2 hours, 4 hours, and 24 hours and analyzed by a stability-indicating HPLC method.
compound,measurement,setting,value
"OCCN(CCO)CCCCCCCCOc1ccccc1O [HPOD, 8-(2-hydroxyphenoxy)octyldiethanolamine]",Insulin,"[1]; delivery agent 250 mg/mL, pH 3.9, room temperature",>50 mg/mL
"O=C(O)CCCCCCCNC(=O)c1ccccc1O [SNAC, N-(8-[2-hydroxybenzoyl]-amino) caprylic acid]",Insulin,"[1]; delivery agent 150 mg/mL, pH 7.9, room temperature",>200 mg/mL
"O=C(O)CCCNC(=O)c1ccc(Cl)cc1O [Treatment 4-CNAB, 4-[(2-hydroxy-4-chlorobenzoyl)amino]butanoate]",Insulin,"[1]; delivery agent 5 mg/mL, pH of delivery agent solution 6.4, room temperature",0.5 mg/mL
same,Insulin,"[1]; delivery agent 10 mg/mL, pH 6.45, room temperature",1 mg/mL
same,Insulin,"[1]; delivery agent 50 mg/mL, pH 6.26, room temperature",11 mg/mL
same,Insulin,"[1]; delivery agent 50 mg/mL, pH 6.49, room temperature",44 mg/mL
same,Insulin,"[1]; delivery agent 100 mg/mL, pH 6.45, room temperature",>110 mg/mL
same,Insulin,"[1]; delivery agent 100 mg/mL, pH 6.71, room temperature",86 mg/mL
same,Insulin,"[1]; delivery agent 150 mg/mL, pH 6.83, room temperature",187 mg/mL
same,Insulin,"[1]; delivery agent 200 mg/mL, pH 6.79, room temperature",>135 mg/mL
Insulin: insulin (recombinant human insulin) whose solubility and dissolution were tested,Insulin,"[1]; None (DI water), pH 6.3, room temperature",1.14 mg/mL
same,rate of insulin dissolution,"[2]; 10 mg/mL sodium 4-CNAB dissolution media versus deionized water, 37° C., 100 rpm",significantly greater
same,insulin levels in dissolution media,"[2]; 50 mg/ml sodium 4-CNAB dissolution media, HPLC",below the detection limits
insulin type #1: recombinant human zinc insulin obtained from Diosynth France,"dissolution rate, visual observation","[3]; not observed at pH 1, 2, and 7.4 where dissolution was very rapid for both",dissolved faster than insulin type #2
same,Solubility,[3],greater than 4 mg/mL
insulin type #2: recombinant human zinc insulin obtained from Eli Lilly Co.,Solubility,[3],> 2 mg/mL
